Source: patent publication US20060009463A1, “N-(3-rifamycinyl)-carbamates, method of preparing them and their use for treating and preventing tuberculosis” (priority 2002, published 2006)

Key:
M. tuberculosis H37Rv = assay: ex vivo anti-mycobacterial activity, growth in mouse macrophages; format: cell-based, Mycobacterium tuberculosis; details: for Macrophage Data, Monolayer 1 / Macrophage Data, Monolayer 2 / Macrophage Data, Monolayer 3 / Macrophage Data, Monolayer 4 / Macrophage Data, Monolayer mean: J774 mouse macrophages infected with M. tuberculosis H37Rv; for Macrophage Data, Monolayer 1 / Macrophage Data, Monolayer 2 / Macrophage Data, Monolayer 3 / Macrophage Data, Monolayer 4: 24 hours with compound; for Macrophage Data, Monolayer mean: mean of monolayers 1-4, 24 hours; for in vitro and ex vivo activity against Mycobacterium tuberculosis compared with rifampicine (in words): general statement of the description
[1] = test system: Bacillus subtilis ATCC 6633; assay: double-dosage method of diffusion in agar; format: cell-based; details: for relative activity, Bacillus subtilis ATCC 6633: activity of rifampicin taken as 1000, agar diffusion, 5 and 10 μg/ml, pH 7.4; for antibiotic activity compared with rifampicine (in words): against Bacillus subtilis
Klebsiella pneumoniae = assay: double-dosage method of diffusion in agar; details: for relative activity, Klebsiella pneumoniae: activity of rifampicin taken as 1000, agar diffusion, 5 and 10 μg/ml, pH 7.4
Procedure: (§1) This test is based on the logarithmic dependence between the size of the inhibition area associated with the bacterial growth in a layer of agar (response) and the quantity of the applied antibiotic.
(§2) From these solutions buffered solutions were prepared in phosphate buffer, pH 7.4 at concentrations of 5 and 10 μg/ml.
(§3) An initial suspension of the test microorganism (Bacillus subtilis ATCC 6633, Escherichia coli, Bacillus mycoide, Klebsiella pneumoniae, Pseudomonas aeruginosa) was prepared having a UV-light transmission of about 25%. A suitable diffusion medium (for example for Bacillus subtilis: 1 g pepton, 3 g yeast extract, 15-18 g agar, in 1 l water, pH 7.8-8.0 after sterilization) was inoculated with 0.5 ml of the initial suspension per 100 ml medium at a temperature of 60-65° C. 20 ml of the mixture each was filled into Petri's dishes (diameter 100 mm). After hardening of the medium four pits (diameter 5 mm) were placed in each dish and onto every pit 90 μl of the solutions of the reference and the tested compounds were added. The dishes were incubated at 37° C. for at least 15 hours. The sizes (diameters) of the areas of inhibition were then measured with an accuracy of 0.1 mm.
(§4) The activity A was calculated according to • lg A=(lv/w) with • I=lg (high concentration/low concentration), • v=(ΣX1+ΣX2)−(ΣP1+ΣP2), and • w=(ΣX2+ΣP2)−(ΣX1+ΣP1), with • X1: area size in mm at low concentration of the sample, • X2: area size in mm at high concentration of the sample, • P1: area size in mm at low concentration of the reference, • P2: area size in mm at low concentration of the reference,

Escherichia coli = assay: double-dosage method of diffusion in agar; details: for relative activity, Escherichia coli: activity of rifampicin taken as 1000, agar diffusion, 5 and 10 μg/ml, pH 7.4
Procedure: as §1, §2, §3, §4

Pseudomonas aeruginosa = assay: double-dosage method of diffusion in agar; details: for relative activity, Pseudomonas aeruginosa: activity of rifampicin taken as 1000, agar diffusion, 5 and 10 μg/ml, pH 7.4
Procedure: as §1, §2, §3, §4

Bacillus mycoide = assay: double-dosage method of diffusion in agar; details: activity of rifampicin taken as 1000, 5 and 10 μg/ml, pH 7.4
Procedure: as §1, §2
An initial suspension of the test microorganism (Bacillus subtilis ATCC 6633, Escherichia coli, Bacillus mycoide, Klebsiella pneumoniae, Pseudomonas aeruginosa) was prepared having a UV-light transmission of about 25%. A suitable diffusion medium (for example for Bacillus subtilis: 1 g pepton, 3 g yeast extract, 15-18 g agar, in 1 l water, pH 7.8-8.0 after sterilization) was inoculated with 0.5 ml of the initial suspension per 100 ml medium at a temperature of 60-65° C. 20 ml of the mixture each was filled into Petri's dishes (diameter 100 mm). […] The sizes (diameters) of the areas of inhibition were then measured with an accuracy of 0.1 mm.
as §4

| SMILES | Macrophage Data, Monolayer 1 (M. tuberculosis H37Rv) | Macrophage Data, Monolayer 2 (M. tuberculosis H37Rv) | Macrophage Data, Monolayer 3 (M. tuberculosis H37Rv) | Macrophage Data, Monolayer 4 (M. tuberculosis H37Rv) | Macrophage Data, Monolayer mean (M. tuberculosis H37Rv) | relative activity, Bacillus subtilis ATCC 6633 [1] | antibiotic activity compared with rifampicine (in words) ([1]; listed as N-(methyloxycarbonyl)-3-aminorifamycin S) | antibiotic activity compared with rifampicine (in words) ([1]; listed as methyl) | in vitro and ex vivo activity against Mycobacterium tuberculosis compared with rifampicine (in words) (M. tuberculosis H37Rv) | relative activity, Klebsiella pneumoniae (Klebsiella pneumoniae) | antibiotic activity compared with rifampicine (in words) (Klebsiella pneumoniae; against K. pneumoniae) | relative activity, Escherichia coli (Escherichia coli) | antibiotic activity compared with rifampicine (in words) (Escherichia coli; against E. coli) | relative activity, Pseudomonas aeruginosa (Pseudomonas aeruginosa) | antibiotic activity compared with rifampicine (in words) (Pseudomonas aeruginosa; against P. aeruginosa) | relative activity, Bacillus mycoide (Bacillus mycoide) | antibiotic activity compared with rifampicine (in words) [1] |
| --- | --- | --- | --- | --- | --- | --- | --- | --- | --- | --- | --- | --- | --- | --- | --- | --- | --- |
| CO[C@H]1/C=C/O[C@@]2(C)Oc3c(C)c(O)c4c(O)c(c(/C=N/N5CCN(C)CC5)c(O)c4c3C2=O)NC(=O)/C(C)=C\C=C\[C@H](C)[C@H](O)[C@@H](C)[C@@H](O)[C@@H](C)[C@H](OC(C)=O)[C@@H]1C [rifampicine, reference compound] | 0.00 CFU/ml | 200.00 CFU/ml | 600.00 CFU/ml | 800.00 CFU/ml | 400.00 CFU/ml | – | – | – | – | – | – | – | – | – | – | – | – |
| COC(=O)NC1=C2NC(=O)C(C)=CC=CC(C)C(O)C(C)C(O)C(C)C(OC(C)=O)C(C)C(OC)C=COC3(C)Oc4c(C)c(O)c(c(c4C3=O)C1=O)C2=O (stereo not drawn) [R = methyl, N-(Methyloxycarbonyl)-3-aminorifamycin S] | 0.00 CFU/ml | 0.00 CFU/ml | 0.00 CFU/ml | 200.00 CFU/ml | 50.00 CFU/ml | 6000 | twice as high as rifampicine | about six times higher than rifampicine | at least as high or even higher as the activity of rifampicine | 1900 | twice as high as rifampicine | 2100 | twice as high as rifampicine | 1750 | twice as high as rifampicine | 2000 | – |
| COC1C=COC2(C)Oc3c(C)c(O)c4c(c3C2=O)C(=O)C(NC(=O)OCCBr)=C(NC(=O)C(C)=CC=CC(C)C(O)C(C)C(O)C(C)C(OC(C)=O)C1C)C4=O (stereo not drawn) [R = 2-bromoethyl, N-(2-Bromoethyloxycarbonyl)-3-aminorifamicin S] | – | – | – | – | – | 6600 | – | – | – | – | – | – | – | – | – | – | about six times higher than rifampicine |
| COC1C=COC2(C)Oc3c(C)c(O)c4c(c3C2=O)C(=O)C(NC(=O)OCc2ccc([N+](=O)[O-])cc2)=C(NC(=O)C(C)=CC=CC(C)C(O)C(C)C(O)C(C)C(OC(C)=O)C1C)C4=O (stereo not drawn) [R = 4-nitrobenzyl, N-(4-Nitrobenzyloxycarbonyl)-3-aminorifamicin S] | – | – | – | – | – | 5400 | – | – | – | – | – | – | – | – | – | – | about six times higher than rifampicine |
| CCOC(=O)NC1=C2NC(=O)C(C)=CC=CC(C)C(O)C(C)C(O)C(C)C(OC(C)=O)C(C)C(OC)C=COC3(C)Oc4c(C)c(O)c(c(c4C3=O)C1=O)C2=O (stereo not drawn) [R = ethyl, N-(Ethyloxycarbonyl)-3-aminorifamycin S] | 0.00 CFU/ml | 200.00 CFU/ml | 0.00 CFU/ml | 0.00 CFU/ml | 50.00 CFU/ml | 2050 | – | – | at least as high or even higher as the activity of rifampicine | 1030 | – | 690 | – | 920 | – | 1150 | – |
